Experimental data as given in ChEMBL document CHEMBL3351435, “New pyrrole derivatives with potent tubulin polymerization inhibiting activity as anticancer agents including hedgehog-dependent cancer” (J Med Chem, 2014).
Activity calls are given as the source filed them. The rule behind the calls is not given here.

Experiments:
HeLa [1] = assay: Induction of apoptosis in human HeLa cells assessed as short, aberrantly shaped, tripolar or multipolar microtubule microtubule at 20 nM by immunofluorescence analysis; format: functional, cell-based
K562 [2] = assay: Cell cycle arrest in human K562 cells assessed as mitotic index at 0.1 nM (reference value: 3 +/- 1%); format: functional
HeLa [3] = assay: Cell cycle arrest in human HeLa cells assessed as accumulation at G2/M phase at 20 nM by propidium iodide staining-based flow cytometry; format: functional
HeLa [4] = assay: Induction of apoptosis in human HeLa cells assessed as failure of MT elongation at 20 nM by immunofluorescence analysis; format: functional, cell-based
HeLa [5] = assay: Induction of apoptosis in human HeLa cells assessed as failure of MT elongation at 100 nM by immunofluorescence analysis; format: functional, cell-based
HeLa [6] = assay: Induction of apoptosis in human HeLa cells assessed as unstructured tubulin foci at 100 nM by immunofluorescence analysis; format: functional, cell-based
cells [7] = details: Homo sapiens, HCT-15, 72 h
Description: Cytotoxicity against human HCT15 cells assessed as growth inhibition after 72 hrs by CellTitre-Glo assay

HepG2 [8] = assay: Cell cycle arrest in human HepG2 cells assessed as rounded cells at 500 nM after 24 hrs by propidium iodide staining-based flow cytometry; format: functional
HepG2 [9] = assay: Cell cycle arrest in human HepG2 cells assessed as accumulation at G2/M phase at 500 nM after 24 hrs by propidium iodide staining-based flow cytometry; format: functional
RD [10] = assay: Cell cycle arrest in human RD cells assessed as accumulation at G2/M phase at 500 nM after 24 hrs by propidium iodide staining-based flow cytometry; format: functional
RD [11] = assay: Cell cycle arrest in human RD cells assessed as rounded cells at 500 nM after 24 hrs by propidium iodide staining-based flow cytometry; format: functional
HepG2 [12] = assay: Cell cycle arrest in human HepG2 cells at 500 to 2000 nM incubated for 24 hrs followed by compound washout measured after 24 hrs; format: functional, cell-based
RD [13] = assay: Cytotoxicity against human RD cells assessed as growth inhibition after 48 hrs by MTT method; format: functional, cell-based
HepG2 [14] = assay: Induction of apoptosis in human HepG2 cells after 48 hrs by annexin-V/propidium iodide staining-based flow cytometry; format: functional, cell-based
RD [15] = assay: Cell cycle arrest in human RD cells at 500 nM incubated for 24 hrs followed by compound washout measured after 24 hrs; format: functional, cell-based
[16] = Cell cycle arrest in human PC3 cells at 500 to 2000 nM incubated for 24 hrs followed by compound washout measured after 24 hrs; format: functional, cell-based; details: PC-3
[17] = Cell cycle arrest in human PC3 cells assessed as accumulation at G2/M phase at 500 nM after 24 hrs by propidium iodide staining-based flow cytometry; format: functional; details: PC-3
RD [18] = assay: Cell cycle arrest in human RD cells at 1000 to 2000 nM incubated for 24 hrs followed by compound washout measured after 24 hrs; format: functional, cell-based
[19] = Cell cycle arrest in human PC3 cells assessed as rounded cells at 500 nM after 24 hrs by propidium iodide staining-based flow cytometry; format: functional; details: PC-3
MCF7 [20] = assay: Cell cycle arrest in human MCF7 cells at 100 nM by immunofluorescence microscopy; format: functional, cell-based
Tubulin = assay: Inhibition of tubulin (unknown origin) polymerization incubated 15 mins prior to GTP addition by spectrophotometry; format: protein-complex assay, Homo sapiens
HeLa [21] = assay: Cell cycle arrest in human HeLa cells by propidium iodide staining-based flow cytometry; format: functional
[22] = Cytotoxicity against human HCT116 cells assessed as growth inhibition after 48 hrs by MTT method; format: functional, cell-based; details: HCT-116, 48 h
NCI/ADR-RES = assay: Cytotoxicity against human NCI/ADR-RES cells assessed as growth inhibition after 96 hrs by Giemsa staining-based light microscopy; format: functional, cell-based
cells [23] = details: Homo sapiens, OVCAR-8, 96 h
Description: Cytotoxicity against human OVCAR8 cells assessed as growth inhibition after 96 hrs by Giemsa staining-based light microscopy

HeLa [24] = assay: Cell cycle arrest in human HeLa cells assessed as accumulation at G2/M phase at 100 nM by propidium iodide staining-based flow cytometry; format: functional
HeLa [25] = assay: Induction of apoptosis in human HeLa cells assessed as short, aberrantly shaped, tripolar or multipolar microtubule at 100 nM by immunofluorescence analysis; format: functional, cell-based
[26] = Cytotoxicity against human MESSA cells assessed as growth inhibition after 72 hrs by CellTitre-Glo assay; format: functional, cell-based; details: MES-SA
MCF7 [27] = assay: Cytotoxicity against human MCF7 cells after 96 hrs by Giemsa staining-based light microscopy; format: functional, cell-based; details: MCF7, 96 h
Tubulin (Homo sapiens) = Tubulin (Homo sapiens) (UniProt P68371+Q9H4B7+P0DPH7+P68366+Q13509+Q71U36+P04350+Q3ZCM7+P07437+P68363+Q9BQE3+Q6PEY2+Q13885+Q9BVA1+Q9BUF5); assay: Displacement of [3H]colchicine from tubulin (unknown origin) at 5 uM after 10 mins; format: protein-complex assay
HeLa [28] = assay: Cytotoxicity against human HeLa cells assessed as growth inhibition after 48 hrs by MTT method; format: functional, cell-based
MCF7 [29] = assay: Cell cycle arrest in human MCF7 cells expressing exogenous caspase-3 at 100 nM by immunofluorescence microscopy; format: functional, cell-based
HT-29 = assay: Cytotoxicity against human HT-29 cells assessed as growth inhibition after 48 hrs by MTT method; format: functional, cell-based; details: HT-29, 48 h
HeLa [30] = assay: Cell cycle arrest in human HeLa cells assessed as mitotic rounded-up phenotype at 100 nM by light microscopy; format: functional, cell-based
A549 = assay: Cytotoxicity against human A549 cells assessed as growth inhibition after 48 hrs by MTT method; format: functional, cell-based; details: A549, 48 h
PC-3 = assay: Induction of apoptosis in human PC3 cells after 48 hrs by annexin-V/propidium iodide staining-based flow cytometry; format: functional, cell-based
K562 [31] = assay: Cell cycle arrest in human K562 cells assessed as mitotic index at 10 times IC50 (reference value: […] +/- […]%); format: functional
[32] = Cytotoxicity against human D283 cells; format: functional, cell-based
K562 [33] = assay: Cytotoxicity against human K562 cells assessed as growth inhibition after 96 hrs by Giemsa staining-based light microscopy; format: functional, cell-based; details: K562, 96 h
RD [34] = assay: Induction of apoptosis in human RD cells at 500 to 2000 nM after 48 hrs by annexin-V/propidium iodide staining-based flow cytometry; format: functional, cell-based
[35] = Cytotoxicity against human PC3 cells assessed as growth inhibition after 48 hrs by MTT method; format: functional, cell-based; details: PC-3, 48 h
HepG2 [36] = assay: Cytotoxicity against human HepG2 cells assessed as growth inhibition after 48 hrs by MTT method; format: functional, cell-based; details: HepG2, 48 h
HepG2 [37] = assay: Induction of apoptosis in human HepG2 cells at 500 to 2000 nM after 48 hrs by annexin-V/propidium iodide staining-based flow cytometry; format: functional, cell-based
[38] = Inhibition of hedgehog signaling in mouse NIH/3T3 Shh-Light II cells after 48 hrs by luciferase reporter gene assay; format: functional, cell-based
[39] = Cytotoxicity against human MESSA/DX5 cells assessed as growth inhibition after 72 hrs by CellTitre-Glo assay; format: functional, cell-based; details: MES-SA/Dx5, 72 h

Structure (SMILES): COc1ccc(/C=C\c2cc(OC)c(OC)c(OC)c2)cc1O [COMBRETASTATIN A4]
- Activity (HeLa [1]): Active
- Activity (K562 [2]): 65%
- Activity (HeLa [3]): Active
- Activity (HeLa [4]): Active
- Activity (HeLa [5]): Active
- Activity (HeLa [6]): Active
- IC50 (cells [7]): 39 nM

Structure (SMILES): CC(=O)O[C@H]1C(=O)[C@@]2(C)[C@H]([C@H](OC(=O)c3ccccc3)[C@]3(O)C[C@H](OC(=O)[C@H](O)[C@@H](NC(=O)c4ccccc4)c4ccccc4)C(C)=C1C3(C)C)[C@]1(OC(C)=O)CO[C@@H]1C[C@@H]2O [PACLITAXEL]
- Activity (HepG2 [8]): Active
- Activity (HepG2 [9]): Active
- Activity (RD [10]): Active
- Activity (RD [11]): Active
- Activity (HepG2 [12]): inactive
- IC50 (RD [13]): 14200 nM
- Activity (HepG2 [14]): Dose-dependent effect
- Activity (RD [15]): Active
- Activity [16]: inactive
- Activity [17]: Active
- Activity (RD [18]): inactive
- Activity [19]: Active

Structure (SMILES): COc1cc(C(=O)c2ccn(-c3ccccc3)c2)cc(OC)c1OC
- Activity (MCF7 [20]): inactive
- IC50 (Tubulin): 1500 nM
- Activity (HeLa [21]): Dose-dependent effect
- IC50 [22]: 77 nM
- IC50 (NCI/ADR-RES): 20 nM
- IC50 (cells [23]): 45 nM
- Activity (HeLa [24]): Active
- Activity (HeLa [25]): Active
- IC50 [26]: 56 nM
- IC50 (MCF7 [27]): 700 nM
- Activity (HeLa [3]): Active
- inhibition (Tubulin (Homo sapiens)): 80%
- IC50 (HeLa [28]): 100 nM
- Activity (MCF7 [29]): inactive
- IC50 (HT-29): 90 nM
- Activity (HeLa [30]): Active
- IC50 (A549): 200 nM

Structure (SMILES): COc1cc(C(=O)c2ccn(-c3cccc(NC(=N)N)c3)c2)cc(OC)c1OC.Cl
- Activity (HepG2 [8]): Active
- Activity (HepG2 [9]): Active
- IC50 (Tubulin): 1200 nM
- Activity (RD [10]): Active
- Activity (PC-3): Dose-dependent effect
- Activity (K562 [31]): 71%
- IC50 [32]: 675 nM
- Activity (RD [11]): Active
- Activity (HepG2 [12]): inactive
- IC50 (K562 [33]): 25 nM
- IC50 (RD [13]): 803 nM
- IC50 [26]: 14 nM
- IC50 (MCF7 [27]): 20 nM
- Activity (RD [15]): Active
- Activity [17]: Active
- Activity (RD [34]): Active
- inhibition (Tubulin (Homo sapiens)): 87%
- Activity [19]: Active
- IC50 [35]: 3.9 nM
- IC50 (HepG2 [36]): 49.5 nM
- Activity (HepG2 [37]): Active
- inhibition [38]: Dose-dependent effect
- IC50 [39]: 16 nM
